This is an account of results in ChEMBL document CHEMBL2321741, “Discovery and optimization of potent broad-spectrum arenavirus inhibitors derived from benzimidazole” (Bioorg Med Chem Lett, 2013).

Active and inactive are the calls of the source. The rule behind the calls is not given here.

Assay [1] has as its system Lassa virus. Briefly: Antiviral activity against Lassa virus pseudovirions infected in HEK293T/17 cells after 72 hrs by luciferase reporter gene assay. The assay is classed as functional, organism-based. Conditions: Mammarenavirus lassaense, HEK-293T. A general note: Reporter assays use an easily measured gene product as a stand-in for the process of interest.
The subject of assay [2] is Lassa virus. Briefly: Antiviral activity against Lassa virus pseudovirions infected in HEK293T/17 cells at 50 uM after 72 hrs by luciferase reporter gene assay. The assay is classed as functional, organism-based. The conditions noted are these: Mammarenavirus lassaense, HEK-293T.
For another assay, the system named is Machupo mammarenavirus. Briefly: Antiviral activity against Machupo virus pseudovirions infected in HEK293T/17 cells after 72 hrs by luciferase reporter gene assay. Format: functional, cell-based. The conditions noted are these: Mammarenavirus machupoense, HEK-293T.
The subject of assay [3] is Lassa virus. Briefly: Antiviral activity against Lassa virus infected in guinea pig strain 13 assessed as host survival rate at 25 mg/kg/day, ip administered at 1 hr prior to infection for 14 days relative to control. The assay is classed as functional, Mammarenavirus lassaense. Conditions: route intraperitoneal.
Assay [4] relates to Lassa virus. Briefly: Antiviral activity against Lassa virus infected in guinea pig strain 13 assessed as reduction in viral titre in plasma at 25 mg/kg/day, ip administered at 1 hr prior to infection for 14 days relative to control. Format: functional, Mammarenavirus lassaense. The conditions noted are these: route intraperitoneal.
Another assay has as its system Sabia virus. Briefly: Antiviral activity against Sabia virus pseudovirions infected in HEK293T/17 cells after 72 hrs by luciferase reporter gene assay. The assay is classed as functional, cell-based. The conditions noted are these: HEK-293T.
The subject of another assay is Guanarito virus. Briefly: Antiviral activity against Guanarito virus pseudovirions infected in HEK293T/17 cells after 72 hrs by luciferase reporter gene assay. Format: functional, cell-based. Conditions: Mammarenavirus guanaritoense, HEK-293T.
The subject of the next assay is Junin virus. Briefly: Antiviral activity against Junin virus pseudovirions infected in HEK293T/17 cells after 72 hrs by luciferase reporter gene assay. Format: functional, organism-based. Conditions: Mammarenavirus juninense, HEK-293T.
Assay [5] has as its system Lassa virus. Briefly: Antiviral activity against Lassa virus infected in guinea pig strain 13 assessed as host survival rate at 80 mg/kg/day, ip administered at 1 hr prior to infection for 14 days relative to control. Format: functional, Mammarenavirus lassaense. Conditions: route intraperitoneal.

In general, EC50 refers to the concentration giving half of the maximal effect. Low values mean an effect from little substance, high ones a need for much substance. In the case of `COc1ccc(-n2cnc3cc(NCc4ccc(Cl)cc4)ccc32)cc1`, the concentration for a half-maximal effect (EC50) with Lassa virus [1] worked out at 47 nM. Still for that read-out and setting: the same measure for `COc1ccc(-n2cnc3cc(NCc4ccc(CN5CCCCC5)cc4)ccc32)cc1`: 1400 nM. In the case of `CCCNc1ccc2c(c1)ncn2-c1ccc(OC)cc1`, in the assay with Lassa virus [2], the outcome was inactive. In the assay with Lassa virus [1], `COc1ccc(-n2cnc3cc(NCc4ccccc4O)ccc32)cc1` returned an EC50 of 310 nM.

Compound `CCc1ccc(CNc2ccc3c(c2)ncn3-c2ccc(OC)cn2)cc1` yielded an EC50 in the assay with Lassa virus [1] of 5.8 nM. Still for that read-out and setting: then `COc1ccc(-n2cnc3cc(N(Cc4ccc(C(C)C)cc4)C(C)=O)ccc32)cc1`, with 380 nM. In turn, `CC(C)c1ccc(CNc2ccc3ncn(-c4ccc(OC(C)(C)C)cc4)c3c2)cc1` returned an EC50 in the assay with Lassa virus [1] of 180 nM. `CCOc1ccc(-n2cnc3cc(NCc4cnc(CC)nc4)ccc32)cc1`: in the assay with Lassa virus [1], the response was half-maximal at 450 nM (EC50). As to `CCc1ccc(-n2cnc3cc(NCc4ccc(C(C)C)cc4)ccc32)cc1`, the EC50 in the assay with Lassa virus [1] was 1.9 nM. As to `CCCCc1ccc(-n2cnc3cc(NCc4ccc(C(C)C)cc4)ccc32)cc1`, in the assay with Lassa virus [1], the 50% effective concentration (EC50) turned out to be 4.4 nM. Turning to `COc1ccc(-n2cnc3cc(NCc4ccc(C(C)C)cc4)ccc32)cc1`, the 50% effective concentration (EC50) with Lassa virus [1] was 1.4 nM; in the assay with Machupo mammarenavirus, 3.1 nM; with Sabia virus, 21 nM; in the assay with Guanarito virus, 0.44 nM; with Junin virus, 0.62 nM. In addition, in the assay with Lassa virus [3], the Activity is on record as 63%. For the same compound, the “fold change (FC)” value with Lassa virus [4] is 2. On to `COc1ccc(-n2cnc3cc(NCc4cccc(OC)c4)ccc32)cc1`, for which the midpoint of the response in the assay with Lassa virus [1], the EC50, lay at 35 nM. On the same count and under the same terms, the same measure for `CC(C)c1ccc(CNc2ccc3c(c2)ncn3-c2ccc(Oc3ccc4ccccc4c3)cc2)cc1`: 540 nM. The same measure, in the same setting: then `COc1ccc(-n2cnc3cc(NCc4ccc(OC)c(OC)c4)ccc32)cc1`, with 700 nM; and `CC(C)c1ccc(CNc2ccc3c(c2)ncn3-c2ccccc2)cc1`, with 5.2 nM. Take `CNc1ccc2c(c1)ncn2-c1ccc(OC)cc1`: the result with Lassa virus [2] was inactive. The compound `COc1ccc(-n2cnc3cc(NC(=O)c4ccc(C)cc4)ccc32)cc1` came in with a 50% effective concentration (EC50) in the assay on Lassa virus [1] of more than 50000 nM.

For the compound `NC(=O)c1ncn([C@@H]2O[C@H](CO)[C@@H](O)[C@H]2O)n1` [RIBAVIRIN], the Activity in the assay with Lassa virus [5] amounted to 0%.

`COc1ccc(-n2cnc3cc(NCc4ccccc4OC)ccc32)cc1` returned a 50% effective concentration (EC50) in the assay with Lassa virus [1] of 460 nM. The same measure, in the same setting: the same measure for `CC(C)c1ccc(CNc2ccc3c(c2)ncn3-c2ccc(C(C)(C)C)cc2)cc1`: 4 nM; for `COc1ccc(-n2cnc3cc(NCc4ccc(Oc5ccccc5)cc4)ccc32)cc1`: 380 nM. `COc1ccc(-n2cnc3cc(NCc4ccc(CN5CCN(C)CC5)cc4)ccc32)cc1` returned an EC50 with Lassa virus [1] of 16000 nM. In the case of `CCOc1ccc(CNc2ccc3c(c2)ncn3-c2ccc(OC)cc2)cc1`, the concentration giving a half-maximal response (EC50) in the assay on Lassa virus [1] was 4 nM.

On to `COc1ccc(CNc2ccc3c(c2)ncn3-c2ccc(OC)cc2)cc1`, for which the concentration for a half-maximal effect (EC50) worked out at 11 nM with Lassa virus [1]; 45 nM in the assay with Machupo mammarenavirus; 110 nM in the assay with Sabia virus; 5.6 nM in the assay on Guanarito virus; 7.7 nM in the assay on Junin virus.

With `CCOc1ccc(-n2cnc3cc(NCc4ccc(C)nc4)ccc32)cc1`, in the assay on Lassa virus [1], the half-maximal effective concentration (EC50) was 240 nM. The same measure, in the same setting: then `Cc1ccc(CNc2ccc3c(c2)ncn3C2CCCCC2)cc1`, with 320 nM; and `CCc1ccc(CNc2ccc3c(c2)ncn3-c2ccc(OC)cc2)cc1`, with 1.2 nM. Regarding `COc1ccc(-n2cnc3cc(NCc4ccc(OCCN(C)C)cc4)ccc32)cc1`, the response in the assay with Lassa virus [1] was half-maximal at 3300 nM (EC50).

In turn, `CC(C)c1ccc(CNc2ccc3c(c2)ncn3-c2ccc(OC(C)(C)C)cc2)cc1` registered an EC50 in the assay with Lassa virus [1] of 8.6 nM. Take `CC(C)c1ccc(CNc2ccc3c(c2)ncn3-c2ccc(Cc3ccccc3)cc2)cc1`: the concentration giving a half-maximal response (EC50) in the assay on Lassa virus [1] amounted to 120 nM. `COc1ccc(-n2cnc3cc(NCc4ccc(Cc5ccccc5)cc4)ccc32)cc1` had a half-maximal effective concentration (EC50) in the assay with Lassa virus [1] of 46 nM. Take `COc1ccc(-n2cnc3cc(N(C)Cc4ccc(C(C)C)cc4)ccc32)cc1`: in the assay with Lassa virus [1], the midpoint of the response, the EC50, lay at 57 nM. On the same count and under the same terms, the same measure for `COc1ccc(-n2cnc3cc(NCc4cccc(OC)c4OC)ccc32)cc1`: 160 nM; for `CCOc1ccc(-n2cnc3cc(NCc4ccc(CC(=O)O)cc4)ccc32)cc1`: 1300 nM; for `CCc1ccc(CNc2ccc3c(c2)ncn3-c2ccc(OC)nc2)cc1`: 32 nM. On the same count and under the same terms, then `CCc1ccc(CNc2ccc3c(c2)ncn3-c2ccc(OC)nn2)cc1`, with 81 nM; and `COc1ccc(-n2cnc3cc(NCc4ccc(C(C)(C)C)cc4)ccc32)cc1`, with 1.1 nM; and `COc1ccc(-n2cnc3cc(NCc4ccc(OC(C)(C)C)cc4)ccc32)cc1`, with 5.2 nM. `COc1ccc(-n2cnc3cc(NCc4ccco4)ccc32)cc1` gave an EC50 in the assay with Lassa virus [1] of 1200 nM.

For the compound `COc1ccc(-n2cnc3cc(N(Cc4ccc(C(C)C)cc4)S(=O)(=O)c4ccc(C)cc4)ccc32)cc1`, the half-maximal effective concentration (EC50) was determined as 110 nM with Lassa virus [1], 40 nM with Machupo mammarenavirus, 510 nM in the assay on Sabia virus and 16 nM in the assay on Junin virus.

Take `COc1ccc(-n2cnc3cc(NCc4cccc5ccccc45)ccc32)cc1`: the EC50 in the assay with Lassa virus [1] amounted to 69 nM. `CCCCOc1ccc(CNc2ccc3c(c2)ncn3-c2ccc(OC)cc2)cc1` displayed a concentration for a half-maximal effect (EC50) in the assay with Lassa virus [1] of 6 nM. In the case of `COc1ccc(-n2cnc3cc(NCc4ccc(CN5CCOCC5)cc4)ccc32)cc1`, in the assay with Lassa virus [1], it took 790 nM to reach a half-maximal effect (EC50). Still for that read-out and setting: the same measure for `CCOc1ccc(-n2cnc3cc(NCc4ccc(C)cn4)ccc32)cc1`: 350 nM; for `COc1ccc(-n2cnc3cc(NCc4ccc(CN(C)C)cc4)ccc32)cc1`: 270 nM. Take `CCCCOc1ccc(-n2cnc3cc(NCc4ccc(C(C)C)cc4)ccc32)cc1`: the concentration for a half-maximal effect (EC50) with Lassa virus [1] is 5.6 nM. Turning to `CCOc1ccc(-n2cnc3cc(CNc4ccc(CC)cc4)ccc32)cc1`, the half-maximal effective concentration (EC50) with Lassa virus [1] amounted to 11 nM; in the assay with Machupo mammarenavirus, 12 nM; in the assay on Sabia virus, 43 nM; in the assay with Junin virus, 5 nM.

In turn, `CC(C)c1ccc(CNc2ccc3c(c2)ncn3-c2ccc(Oc3ccccc3)cc2)cc1` displayed an EC50 with Lassa virus [1] of 130 nM.

In the case of `CCCCc1ccc(CNc2ccc3c(c2)ncn3-c2ccc(OC)cc2)cc1`, in the assay on Lassa virus [1], the 50% effective concentration (EC50) was found to be 1.5 nM.

In turn, `CC(C)c1ccc(CNc2ccc3c(c2)ncn3-c2ccc(OCCc3ccccc3)cc2)cc1` gave an EC50 in the assay on Lassa virus [1] of 43 nM.

`CCc1ccc(CNc2ccc3c(c2)ncn3-c2cnc(OC)nc2)cc1` had an EC50 in the assay with Lassa virus [1] of 450 nM.
